Results taken from paper PMC8436411 (ACS Medicinal Chemistry Letters, 2021).
Converted amounts (≈) assume the structure as drawn. “And” between values parts separate entries of the source, which are not always exact repeats. Equal entries are not always repeated. Where two headings read alike, the source gives them in different places.

Assays:
S. aureus (ATCC 29213) [1] = conditions: Table S3; ref 10 (SI); cited from earlier work
E. coli (ATCC 25922) [2] = conditions: Table S3; ref 10 (SI); cited from earlier work
E. coli D22 [3] = conditions: Table S3; mutation in the lpxC gene that increases membrane permeability; ref 10 (SI); cited from earlier work
[4] = test system: E. coli N43 (CGSC no. 5583); conditions: Table S3; AcrA knockout strain; ref 10 (SI); cited from earlier work
MRSA (QA-11.7) [5] = conditions: Table S3; ref 10 (SI); cited from earlier work
[6] = test system: Salmonella alachua RDK 030c (QA-1482/04); conditions: Table S3; ref 10 (SI); cited from earlier work
[7] = test system: Pseudomonas aeruginosa RDK 184 (DSM 939); conditions: cited from earlier work; for MIC P. aeruginosa RDK 184 (DSM 939): Table S3, ref 10 (SI)
[8] = test system: Streptococcus agalactiae RDK 047 (QA-990/02); conditions: Table S3; ref 10 (SI); cited from earlier work
[9] = test system: Enterococcus faecalis DRK 057 (ATCC 29212); conditions: Table S3; ref 10 (SI); cited from earlier work
S. aureus DNA gyrase = biological target: T1, S. aureus DNA gyrase (Staphylococcus aureus, UniProt P20831); assay: DNA gyrase supercoiling inhibition assay (S. aureus); type: biochemical; conditions: mean of two independent measurements ± SD
T1 construct: purchased Inspiralis (Norwich, UK)
Method: We synthesized and biologically evaluated ten new compounds. We determined their inhibitory activity, expressed as IC50 values, on both Gram-positive S. aureus and Gram-negative E. coli bacterial enzymes (DNA gyrase and topo IV), respectively. The in vitro antibacterial activity, expressed as minimum inhibitory concentration (MIC), was determined against broad spectrum of bacteria, including Gram-positive (Staphylococcus aureus, methicillin-resistant Staphylococcus aureus, Streptococcus agalactiae, and Enterococcus faecalis) and Gram-negative strains (Escherichia coli, Salmonella alachua, Pseudomonas aeruginosa, and Klebsiella pneumoniae), enriched with various MRSA strains resistant to various antibiotics as well as E. coli strains with increased membrane permeability and lack of efflux pump, as well. Furthermore, the selectivity of compounds for bacterial enzyme compared to the orthologous human topoisomerase IIα was also considered. The in vitro safety profile was determined by cytotoxicity assessment on human umbilical vein endothelial cell lines (HUVEC) and HepG2 liver cancer cell lines.
Determination of DNA gyrase and topoisomerase IV inhibitory activities
To determine the IC50 values of the compounds, a Gyrase Supercoiling High Throughput Plate assay kit and a TopoIV Relaxation High Throughput Plate assay kit, commercially available from Inspiralis (Norwich, UK), were used for S. aureus and E. coli. The assays were performed on black streptavidin-coated 96-well microtiter plates (Thermo Scientific Pierce, Norwich, UK) and the wells were first […]
BSA and 0.05% [v/v] Tween-20). Biotinylated oligonucleotide diluted with the wash buffer was then immobilized in each well and the excess was removed with the wash buffer. 1.5 U of the enzyme S. aureus or E. coli DNA gyrase (topoIV) was incubated together with 0.75 μg of relaxed (supercoiled) pNO1 plasmid as substrate in the presence of 3 μl inhibitor solution in 10% DMSO and 0.008% Tween-20 at 37°C for 30 min in a final reaction volume of 30 μl in the assay buffer (S. aureus DNA gyrase: 40 mM HEPES.KOH (pH 7.6), 10 mM magnesium acetate, 10 mM DTT, 2 mM ATP, 500 mM potassium glutamate and 0.05 mg/ml albumin; E. coli DNA gyrase: 35 mM Tris.HCl (pH 7.5), 24 […]
mg/ml albumin; S. aureus topo IV: 50 mM Tris.HCl (7.5), 5 mM MgCl 2, 5 mM DTT, 1.5 mM ATP, 350 mM potassium glutamate and 0.05 mg/ml albumin; E. coli topo IV: 40 mM HEPES.KOH (pH 7.6), 100 mM potassium glutamate, 10 mM magnesium acetate, 10 mM DTT, 1 mM ATP and 50 μg/ml albumin). The reaction was stopped by adding the TF buffer (50 mM NaOAc (pH 4.7), 50 mM NaCl and 50 mM MgCl2) to allow triplex formation (biotin oligonucleotide plasmid) for another 30 min. Finally, the unbound plasmid was washed off using the TF buffer and the Promega Diamond dye was added to T10 buffer (10 mM Tris-HCl (pH 8.0), 1 mM EDTA) solution. After 15 min the solution […]
Two inhibitor concentrations of 100 and 1 μM were used for pre-screening. The IC 50 values […]
(IC50) was calculated by nonlinear regression-based fitting of the inhibition curves using the log [inhibitor] versus response-variable slope (four parameters) – symmetrical equation, in GraphPad Prism 6.0 software (GraphPad Software, CA, USA). The IC50 value represents the average of two independent measurements.
The minimum inhibitory concentrations (MICs) were determined using the broth micro-dilution method in 96-well plate format according to the Clinical and Laboratory Standards Institute

Human topoisomerase IIα = Human topoisomerase IIα (Homo sapiens, UniProt P11388); assay: Human topoisomerase IIα residual activity; type: biochemical; conditions: residual activity at 10 μM compound; mean ± SD, two independent experiments; read-out: Human topoisomerase IIα (%RA)
E. coli (ATCC 25922) [10] = assay: microbe, parasite or virus in culture; conditions: Escherichia coli, ATCC25922, read-out: MIC E. coli (ATCC 25922)
Method: (§1) The in vitro antibacterial activity, expressed as minimum inhibitory concentration (MIC), was determined against broad spectrum of bacteria, including Gram-positive (Staphylococcus aureus, methicillin-resistant Staphylococcus aureus, Streptococcus agalactiae, and Enterococcus faecalis) and Gram-negative strains (Escherichia coli, Salmonella alachua, Pseudomonas aeruginosa, and Klebsiella pneumoniae), enriched with various MRSA strains resistant to various antibiotics as well as E. coli strains with increased membrane permeability and lack of efflux pump, as well. […]
(§2) The minimum inhibitory concentrations (MICs) were determined using the broth micro-dilution method in 96-well plate format according to the Clinical and Laboratory Standards Institute […]
(§3) guidelines8 and European Committee on Antimicrobial Susceptibility Testing recommendations9. The bacterial suspension of the specific bacterial strain equivalent to the 0.5 McFarland turbidity standard was diluted with cation-adapted Mueller Hinton broth with TES (Thermo Fisher Scientific) to obtain a […]
(§4) The compounds dissolved in DMSO and inoculum were mixed together and incubated for 20 h at 35 °C.

E. coli D22 [11] = assay: microbe, parasite or virus in culture; conditions: Escherichia coli
Method: as §1, §2, §3, §4

[12] = test system: E. coli N43 (CGSC no. 5583); assay: microbe, parasite or virus in culture; conditions: Escherichia coli
Method: as §1, §2, §3, §4

[13] = test system: Enterococcus faecalis DRK 057 (ATCC 29212); assay: microbe, parasite or virus in culture
Method: as §1, §2, §3, §4

Klebsiella pneumoniae = assay: microbe, parasite or virus in culture
Method: as §1, §2, §3, §4

MRSA (QA-11.7) [14] = assay: microbe, parasite or virus in culture; conditions: Staphylococcus aureus, read-out: MIC MRSA (QA-11.7)
Method: as §1, §2, §3, §4

MRSA (QA-12.1) = assay: microbe, parasite or virus in culture; conditions: Staphylococcus aureus, read-out: MIC MRSA (QA-12.1)
Method: as §1, §2, §3, §4

[15] = test system: Pseudomonas aeruginosa RDK 184 (DSM 939); assay: microbe, parasite or virus in culture
Method: as §1, §2, §3, §4

S. aureus (ATCC 29213) [16] = assay: microbe, parasite or virus in culture; conditions: Staphylococcus aureus, ATCC29213, read-out: MIC S. aureus (ATCC 29213)
Method: as §1, §2, §3, §4

[17] = test system: Salmonella alachua RDK 030c (QA-1482/04); assay: microbe, parasite or virus in culture
Method: as §1, §2, §3, §4

[18] = test system: Streptococcus agalactiae RDK 047 (QA-990/02); assay: microbe, parasite or virus in culture
Method: as §1, §2, §3, §4

[19] = read-out: MIC E. coli N43 (CGSC no. 5583)
[20] = read-out: MIC E. coli N43 (CGSC# 5583)
[21] = ATCC29212, read-out: MIC E. faecalis DRK 057 (ATCC 29212)
[22] = ATCC29212, read-out: MIC Enterococcus faecalis DRK 057 (ATCC 29212)
[23] = read-out: MIC Klebsiella pneumoniae
[24] = DSM939, read-out: MIC P. aeruginosa RDK 184 (DSM 939)
[25] = DSM939, read-out: MIC Pseudomonas aeruginosa RDK 184 (DSM 939)
[26] = read-out: MIC S. alachua RDK 030c (QA-1482/04)
[27] = read-out: MIC Salmonella alachua RDK 030c (QA-1482/04)
[28] = read-out: MIC S. agalactiae RDK 047 (QA-990/02)
[29] = read-out: MIC Streptococcus agalactiae RDK 047 (QA-990/02)

T1 sequence (P20831 whole entry, looked up): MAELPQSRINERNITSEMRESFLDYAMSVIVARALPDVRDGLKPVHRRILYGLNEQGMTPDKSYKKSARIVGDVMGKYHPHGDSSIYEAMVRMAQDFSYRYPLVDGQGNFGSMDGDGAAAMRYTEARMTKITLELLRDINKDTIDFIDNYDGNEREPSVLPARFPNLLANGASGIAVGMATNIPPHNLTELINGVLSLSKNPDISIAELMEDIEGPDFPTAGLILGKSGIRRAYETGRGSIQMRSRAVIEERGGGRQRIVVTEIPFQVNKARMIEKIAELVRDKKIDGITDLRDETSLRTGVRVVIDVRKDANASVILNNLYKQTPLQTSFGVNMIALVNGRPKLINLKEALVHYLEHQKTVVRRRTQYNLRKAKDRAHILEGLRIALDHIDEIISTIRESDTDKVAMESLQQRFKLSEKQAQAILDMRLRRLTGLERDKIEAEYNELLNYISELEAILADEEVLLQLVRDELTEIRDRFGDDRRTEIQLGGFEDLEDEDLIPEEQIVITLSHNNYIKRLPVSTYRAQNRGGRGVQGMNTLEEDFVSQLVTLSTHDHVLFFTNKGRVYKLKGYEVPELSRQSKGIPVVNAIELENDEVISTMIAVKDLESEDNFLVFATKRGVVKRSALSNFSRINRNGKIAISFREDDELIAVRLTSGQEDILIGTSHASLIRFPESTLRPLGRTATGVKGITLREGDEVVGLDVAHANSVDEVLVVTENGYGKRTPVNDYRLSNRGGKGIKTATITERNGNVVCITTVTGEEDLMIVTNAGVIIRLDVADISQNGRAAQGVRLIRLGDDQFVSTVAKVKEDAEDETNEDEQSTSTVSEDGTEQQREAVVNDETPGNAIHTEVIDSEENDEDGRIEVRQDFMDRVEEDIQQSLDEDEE
Sequence of Human topoisomerase IIα (P11388 whole entry): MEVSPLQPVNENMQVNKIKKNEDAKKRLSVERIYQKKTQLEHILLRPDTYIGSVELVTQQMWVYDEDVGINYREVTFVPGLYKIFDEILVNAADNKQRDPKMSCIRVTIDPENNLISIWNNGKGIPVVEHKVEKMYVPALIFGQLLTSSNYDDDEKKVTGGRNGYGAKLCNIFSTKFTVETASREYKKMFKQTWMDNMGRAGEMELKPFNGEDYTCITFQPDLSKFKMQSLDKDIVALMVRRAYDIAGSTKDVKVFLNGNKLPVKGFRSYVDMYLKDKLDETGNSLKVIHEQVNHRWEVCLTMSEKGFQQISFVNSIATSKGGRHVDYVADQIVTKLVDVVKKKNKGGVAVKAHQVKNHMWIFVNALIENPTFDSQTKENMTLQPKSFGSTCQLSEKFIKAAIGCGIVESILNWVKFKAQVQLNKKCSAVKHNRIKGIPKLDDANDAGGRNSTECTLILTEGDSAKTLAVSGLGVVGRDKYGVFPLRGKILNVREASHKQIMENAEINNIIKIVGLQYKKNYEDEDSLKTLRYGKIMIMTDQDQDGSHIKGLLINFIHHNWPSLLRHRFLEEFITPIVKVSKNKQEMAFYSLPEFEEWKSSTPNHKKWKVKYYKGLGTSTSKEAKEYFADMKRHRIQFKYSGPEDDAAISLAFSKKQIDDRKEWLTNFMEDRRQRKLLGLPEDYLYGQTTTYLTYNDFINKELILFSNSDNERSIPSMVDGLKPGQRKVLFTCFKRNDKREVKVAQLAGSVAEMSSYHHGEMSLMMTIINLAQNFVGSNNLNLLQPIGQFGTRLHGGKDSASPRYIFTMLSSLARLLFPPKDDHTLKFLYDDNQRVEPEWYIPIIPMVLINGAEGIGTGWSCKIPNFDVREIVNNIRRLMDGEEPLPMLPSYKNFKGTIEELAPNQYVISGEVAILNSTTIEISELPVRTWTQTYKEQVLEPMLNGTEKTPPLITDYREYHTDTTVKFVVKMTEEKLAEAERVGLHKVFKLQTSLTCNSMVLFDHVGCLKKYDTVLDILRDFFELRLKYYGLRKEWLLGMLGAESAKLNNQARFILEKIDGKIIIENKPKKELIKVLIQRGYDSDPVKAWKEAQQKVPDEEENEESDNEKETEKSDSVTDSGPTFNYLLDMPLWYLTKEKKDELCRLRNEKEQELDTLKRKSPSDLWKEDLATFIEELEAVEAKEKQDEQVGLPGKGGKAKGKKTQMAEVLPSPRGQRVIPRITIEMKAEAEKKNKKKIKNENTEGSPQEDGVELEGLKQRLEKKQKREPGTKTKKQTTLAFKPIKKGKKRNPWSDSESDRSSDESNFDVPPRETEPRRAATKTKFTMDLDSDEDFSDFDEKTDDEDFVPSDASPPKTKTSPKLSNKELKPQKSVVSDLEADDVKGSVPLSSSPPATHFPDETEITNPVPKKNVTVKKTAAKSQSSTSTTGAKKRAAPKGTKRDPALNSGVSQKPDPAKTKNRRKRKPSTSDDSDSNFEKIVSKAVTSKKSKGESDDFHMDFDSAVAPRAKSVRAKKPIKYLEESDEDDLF

Row | Compound | MIC S. aureus (ATCC 29213) (S. aureus (ATCC 29213) [1]) [µM] | MIC E. coli (ATCC 25922) (E. coli (ATCC 25922) [2]) [µM] | MIC E. coli D2 (E. coli D22 [3]) [µM] | MIC E. coli N43 (CGSC# 5583) [4] [µM] | MIC MRSA (QA-11.7) (MRSA (QA-11.7) [5]) [µM] | MIC S. alachua RDK 030c (QA-1482/04) [6] [µM] | MIC P. aeruginosa RDK 184 (DSM 939) [7] [µM] | MIC S. agalactiae RDK 047 (QA-990/02) [8] [µM] | IC50 (S. aureus DNA gyrase) [µM] | remaining activity at 10 µM (Human topoisomerase IIα) [%] | MIC (E. coli (ATCC 25922) [10]) | MIC (E. coli D22 [11]; D22, read-out: MIC E. coli D2) [µM] | MIC (E. coli D22 [11]; D22, read-out: MIC E. coli D22) [mg/L] | MIC [12, 19] [mg/L] | MIC [12, 20] [µM] | MIC [13, 21] [µM] | MIC [13, 22] [mg/L] | MIC (Klebsiella pneumoniae; read-out: MIC K. pneumoniae) [µM] | MIC (Klebsiella pneumoniae; [23]) [mg/L] | MIC (MRSA (QA-11.7) [14]) | other results
1 | COc1ccc2nccc(CCN3CCC(NCc4ccc(I)cc4)CC3)c2n1 [Compound 3] | 0.016 (≈ 0.00804 µg/mL) | 3.98 (≈ 2 µg/mL) | 0.249 (≈ 0.125 µg/mL) | 0.155 (≈ 0.0779 µg/mL) | 0.016 (≈ 0.00804 µg/mL) | 15.9 (≈ 7.99 µg/mL) | 63.7 (≈ 32 µg/mL) | 0.249 (≈ 0.125 µg/mL) | – | – | – | – | – | – | – | – | – | – | – | – | –
2 | COc1ccc2nccc(CCN3CCC(NCc4ccc(Br)cc4)CC3)c2n1 [Compound 2] | 0.068 (≈ 0.031 µg/mL) | 4.39 (≈ 2 µg/mL) | 0.274 (≈ 0.125 µg/mL) | 0.274 (≈ 0.125 µg/mL) | 0.136 (≈ 0.0619 µg/mL) | 35.1 (≈ 16 µg/mL) | 281 (≈ 128 µg/mL) | 1.098 (≈ 0.5 µg/mL) | – | – | – | – | – | – | – | – | – | – | – | – | MIC E. faecalis DRK 057 (ATCC 29212) [9]: 2.20 µM (≈ 1 µg/mL)
3 | COc1ccc2nccc(CCN3CCC(NCc4ccc(Br)c(F)c4F)CC3)c2n1 [Compound 10] | – | – | – | – | – | – | – | – | 0.009 | 98.11 ± 0.91 | 8.14 µM and 4 µg/mL | 1.02 | 0.5 | 0.125 | 0.254 | 4.07 | 2 | 130 | 64 | 0.126 µM and 0.062 µg/mL | MIC (MRSA (QA-12.1)): 0.126 µM and 0.062 µg/mL; MIC [15, 24]: > 260 µM; MIC [15, 25]: > 128 mg/L; MIC (S. aureus (ATCC 29213) [16]): 0.063 µM and 0.031 µg/mL; MIC [17, 26]: 32.6 µM; MIC [17, 27]: 16 mg/L; MIC [18, 28]: 4.07 µM; MIC [18, 29]: 2 mg/L
4 | COc1ccc2nccc(CCN3CCC(NCc4ccc(Cl)cc4)CC3)c2n1 [Compound 1] | 0.304 (≈ 0.125 µg/mL) | 9.73 (≈ 4 µg/mL) | 4.87 (≈ 2 µg/mL) | 1.22 (≈ 0.501 µg/mL) | 1.22 (≈ 0.501 µg/mL) | 77.9 (≈ 32 µg/mL) | > 311 | 2.43 (≈ 0.999 µg/mL) | – | – | – | – | – | – | – | – | – | – | – | – | MIC Pseudomonas aeruginosa RDK 184 (DSM 939) [7]: >128 mg/L; MIC E. faecalis DRK 057 (ATCC 29212) [9]: 2.43 µM (≈ 0.999 µg/mL)
5 | COc1ccc2nccc(CCN3CCC(NCc4ccc(Cl)nc4)CC3)c2n1 [Compound 12] | – | – | – | – | – | – | – | – | 0.283 ± 0.009 | 99.7 ± 1.48 | 77.7 µM and 32 µg/mL | 9.71 | 4 | 8 | 19.4 | 77.7 | 32 | > 311 | > 128 | 2.43 µM and 1 µg/mL | MIC (MRSA (QA-12.1)): 4.86 µM and 2 µg/mL; MIC [15, 24]: > 311 µM; MIC [15, 25]: > 128 mg/L; MIC (S. aureus (ATCC 29213) [16]): 2.43 µM and 1 µg/mL; MIC [17, 26]: > 311 µM; MIC [17, 27]: > 128 mg/L; MIC [18, 28]: 155 µM; MIC [18, 29]: 64 mg/L
6 | COc1ccc2nccc(CCN3CCC(NCc4ccc(Cl)cn4)CC3)c2n1 [Compound 13] | – | – | – | – | – | – | – | – | 0.123 ± 0.019 | 99.36 ± 0.34 | 77.7 µM and 32 µg/mL | 38.8 | 16 | 8 | 19.4 | 9.71 | 4 | > 311 | > 128 | 0.607 µM and 0.25 µg/mL | MIC (MRSA (QA-12.1)): 0.607 µM and 0.25 µg/mL; MIC [15, 24]: > 311 µM; MIC [15, 25]: > 128 mg/L; MIC (S. aureus (ATCC 29213) [16]): 0.303 µM and 0.125 µg/mL; MIC [17, 26]: > 311 µM; MIC [17, 27]: > 128 mg/L; MIC [18, 28]: 19.4 µM; MIC [18, 29]: 8 mg/L
